Source: patent US9849130B2 (KamTek, Inc., priority 2014, dated 2017)
Where two headings read alike, the source gives them in different places.

Key:
C. perfringens MH310 = test: microbe, parasite or virus in culture; assay type: cell-based; settings: Clostridium perfringens, MH310, C. perfringens MH310
Enterococcus faecalis = test: MIC by microdilution in Mueller-Hinton broth against Enterococcus faecalis strains; assay type: cell-based; settings: Enterococcus faecalis
Bacteroides Strains = test: MIC by microdilution in Brucella broth against Bacteroides strains; assay type: cell-based, Bacteroides spp.
[1] = tested on: Clostridium difficile (CD) strains; test: microbe, parasite or virus in culture; assay type: cell-based; settings: Clostridioides difficile; for MIC: BAA1805, CD strain BAA1805 (hyper-virulent strain BI/NAP1/027)
[2] = tested on: Staphylococcus aureus strains; test: MIC by microdilution in Mueller-Hinton broth against Staphylococcus aureus strains; assay type: cell-based; settings: Staphylococcus aureus
Enterococci faecium = test: MIC by microdilution in Mueller-Hinton broth against Enterococci faecium strains; assay type: cell-based, Enterococcus faecium; settings: Enterococcus faecium, Mueller-Hinton broth, read-out: MIC
CD strains = test: In vitro activity of CFM + additional antimicrobial agent against CD (MIC alone/combination, FIC, ΣFIC); assay type: cell-based, Clostridium difficile; settings: CFM + MET; for MIC: Clostridioides difficile, read-out: MIC alone
[3] = tested on: Lachnospiraceae and related bacterial strains; test: MIC against Lachnospiraceae and related bacterial strains; assay type: cell-based, Lachnospiraceae spp.; settings: for MIC: broth microdilution, brucella broth, read-out: MIC
C. difficile VPI10463 = settings: Clostridioides difficile, −fecal extract, C. difficile VPI10463
Lactobacillus strains = test: MIC against Lactobacillus strains; assay type: cell-based, Lactobacillus spp.; settings: for MIC: broth microdilution, BHI with 0.02% Tween 80, pH 6.0, read-out: MIC
Bifidobacterium strains = test: MIC by microdilution in BHI broth against Bifidobacterium strains; assay type: cell-based, Bifidobacterium spp.; settings: BHI broth, read-out: MIC
Escherichia coli strains = test: MIC by microdilution in Mueller-Hinton broth against Escherichia coli strains; assay type: cell-based; settings: Escherichia coli, Mueller-Hinton broth, read-out: MIC
[4] = Test 14, CD strain BAA1805 (BI/NAP1/027)

Cc1ncc([N+](=O)[O-])n1CCO [MET, metronidazole]
0.062 µg/mL: MIC combination (CD strains; Test 3, CD strain VPI 10463) | MIC combination (CD strains; Test 4, CD strain VPI 10463) | MIC ([3]; Lachnospiraceae sp. HM-153) | MIC (C. difficile VPI10463; VPI10463, Expt. 1) | MIC (C. difficile VPI10463; VPI10463, Expt. 2)
> 32 µg/mL: MIC (Enterococcus faecalis; E. faecalis NR 31884, read-out: MIC) | MIC (Enterococcus faecalis; E. faecalis NR 31885, read-out: MIC) | MIC (Enterococcus faecalis; E. faecalis NR 31886, read-out: MIC) | MIC (Enterococcus faecalis; E. faecalis NR 31887, read-out: MIC) | MIC (Enterococcus faecalis; E. faecalis NR 31888, read-out: MIC) | MIC ([2]; Staphylococcus aureus strain NR 10129, read-out: MIC) | MIC ([2]; Staphylococcus aureus strain NR 10186, read-out: MIC) | MIC ([2]; Staphylococcus aureus strain NR 10187, read-out: MIC) | MIC ([2]; Staphylococcus aureus strain NR 10188, read-out: MIC) | MIC ([2]; Staphylococcus aureus strain NR 10189, read-out: MIC) | MIC ([2]; Staphylococcus aureus strain NR 10191, read-out: MIC) | MIC ([2]; Staphylococcus aureus strain NR 10192, read-out: MIC) | MIC ([2]; Staphylococcus aureus strain NR 10193, read-out: MIC) | MIC ([2]; Staphylococcus aureus strain NR 10194, read-out: MIC) | MIC ([2]; Staphylococcus aureus strain NR 10198, read-out: MIC) | MIC (Enterococci faecium; E. faecium NR 31903) | MIC (Enterococci faecium; E. faecium NR 31909) | MIC (Enterococci faecium; E. faecium NR 31912) | MIC (Enterococci faecium; E. faecium NR 31915) | MIC (Enterococci faecium; E. faecium NR 31916) | MIC (Lactobacillus strains; Lactobacillus, pH 6, Lactobacillus jhonsonii HM-643) | MIC (Lactobacillus strains; Lactobacillus, pH 6, Lactobacillus sp. HM-228) | MIC (Lactobacillus strains; Lactobacillus, pH 6, Lactobacillus sp. HM-478) | MIC (Lactobacillus strains; pH 6, Lactobacillus crispatus HM-637) | MIC (Lactobacillus strains; pH 6, Lactobacillus gasseri HM-104) | MIC (Lactobacillus strains; pH 6, Lactobacillus iners HM-126) | MIC (Lactobacillus strains; pH 6, Lactobacillus jensenii HM-105) | MIC (Lactobacillus strains; pH 6, Lactobacillus reuteri HM-102) | MIC (Lactobacillus strains; pH 6, Lactobacillus rhamnosus HM-106) | MIC (Lactobacillus strains; pH 6, Lactobacillus vaginalis HM-405) | MIC (Bifidobacterium strains; Bifidobacterium adolescentis HM-633) | MIC (Bifidobacterium strains; Bifidobacterium breve HM-411) | MIC (Bifidobacterium strains; Bifidobacterium breve HM-412) | MIC (Bifidobacterium strains; Bifidobacterium breve HM-856) | MIC (Bifidobacterium strains; Bifidobacterium, Bifidobacterium sp. HM-30) | MIC (Escherichia coli strains; Escherichia coli strain NR 6) | MIC (Escherichia coli strains; Escherichia coli strain NR 8) | MIC (Escherichia coli strains; Escherichia coli strain NR 96) | MIC (Escherichia coli strains; Escherichia coli strain NR 104) | MIC (Escherichia coli strains; Escherichia coli strain NR 17626) | MIC (Escherichia coli strains; Escherichia coli strain NR 17627) | MIC (Escherichia coli strains; Escherichia coli strain NR 17633) | MIC (Escherichia coli strains; Escherichia coli strain NR 17647) | MIC (Escherichia coli strains; Escherichia coli strain NR 17650) | MIC (Escherichia coli strains; Escherichia coli strain NR 17661)
0.25: FIC (CD strains; Test 10, CD strain NR32885) | FIC (CD strains; Test 12, CD strain NR32885) | FIC (CD strains; Test 21, CD strain NR32888)
≤ 0.031 µg/mL: MIC ([3]; Clostridiales bacterium, Clostridiales bacterium HM-182)
0.5 µg/mL: MIC (Bacteroides Strains; B. eggerthii HM210, read-out: MIC) | MIC (Bacteroides Strains; B. fragilis HM710, read-out: MIC) | MIC (Bacteroides Strains; B. ovatus HM222, read-out: MIC) | MIC (Bacteroides Strains; Bacteroides, B. spp. HM22) | MIC (Bacteroides Strains; Bacteroides, B. spp. HM27) | MIC combination (CD strains; Test 21, CD strain NR32888) | MIC ([3]; Lachnospiraceae sp. HM-480) | MIC ([3]; Lachnospiraceae sp. HM-558) | MIC ([3]; Lachnospiraceae sp. HM-768) | MIC ([3]; Peptostreptococcaceae sp. HM-766) | MIC (Bifidobacterium strains; Bifidobacterium breve HM-1120)
0.015: FIC (CD strains; [4])
0.5: FIC (CD strains; Test 3, CD strain VPI 10463) | FIC (CD strains; Test 4, CD strain VPI 10463)
8 µg/mL: MIC ([1]; BB)
susceptible: susceptibility of Lachnospiraceae and related organisms (in words) ([3]; most of the members of this family)
essentially inactive: in vitro activity against Lactobacillus spp. (in words) (Lactobacillus strains; ten strains tested)
32 µg/mL: MIC (CD strains; BAA1805, Test 15, CD strain BAA1805 (BI/NAP1/027)) | MIC (CD strains; BAA1805, Test 17, CD strain BAA1805 (BI/NAP1/027))
2 µg/mL: MIC (C. perfringens MH310; BB) | MIC (Bacteroides Strains; Bacteroides, B. spp. HM28) | MIC (Bacteroides Strains; Bacteroides, B. spp. HM58) | MIC (CD strains; Test 8, CD strain NR32885) | MIC (CD strains; Test 19, CD strain NR32888) | MIC (CD strains; Test 21, CD strain NR32888) | MIC (Bifidobacterium strains; Bifidobacterium longum HM-845) | MIC (Bifidobacterium strains; Bifidobacterium longum HM-846)
0.062: FIC (CD strains; Test 19, CD strain NR32888)
4 µg/mL: MIC (Bacteroides Strains; Bacteroides, B. spp. HM18) | MIC90 ([1]; n = 37, read-out: MIC90) | MIC combination (CD strains; Test 15, CD strain BAA1805 (BI/NAP1/027)) | MIC combination (CD strains; Test 17, CD strain BAA1805 (BI/NAP1/027))
1 µg/mL: MIC (C. perfringens MH310; BHI) | MIC (Bacteroides Strains; B. fragilis HM709, read-out: MIC) | MIC (Bacteroides Strains; B. fragilis HM714, read-out: MIC) | MIC (Bacteroides Strains; Bacteroides, B. spp. HM19) | MIC ([1]; BHI) | MIC50 ([1]; n = 37, read-out: MIC50) | MIC (CD strains; Test 10, CD strain NR32885) | MIC (CD strains; Test 12, CD strain NR32885) | MIC ([3]; Eubacterium sp. HM-178) | MIC (Bifidobacterium strains; Bifidobacterium longum HM-847)
0.25 µg/mL: MIC (Bacteroides Strains; B. caccae HM728, read-out: MIC) | MIC (Bacteroides Strains; B. stercoris HM1036, read-out: MIC) | MIC (Bacteroides Strains; Bacteroides, B. spp. HM23, read-out: MIC) | MIC combination (CD strains; Test 8, CD strain NR32885) | MIC combination (CD strains; Test 10, CD strain NR32885) | MIC combination (CD strains; Test 12, CD strain NR32885) | MIC combination (CD strains; [4]) | MIC ([3]; Clostridiales bacterium, Clostridiales bacterium HM-84) | MIC ([3]; Lachnospiraceae sp. HM-7) | MIC ([3]; Lachnospiraceae sp. HM-150) | MIC ([3]; Lachnospiraceae sp. HM-157)
16 µg/mL: MIC (CD strains; BAA1805, Test 14, CD strain BAA1805 (BI/NAP1/027)) | MIC ([3]; Lachnospiraceae sp. HM-868) | MIC (Bifidobacterium strains; Bifidobacterium, Bifidobacterium sp. HM-868)
